Measurements taken from patent publication US20090220562A1, “Osteogenic and anti-adipogenic oxysterols” (priority 2005, published 2009).

How the values were obtained:
Type in all cases: cell-based, mouse
[1] = test system: M2-10B4 marrow stromal cells; test: Matrix mineralization (45Ca incorporation assay, von Kossa staining) in M2-10B4 marrow stromal cells; conditions: pretreatment; cyclopamine 1-10 μM, DKK-1 1 μg/ml
Protocol: (§1) Cells: M2-10B4 mouse marrow stromal cell line obtained from American Type Culture Collection (ATCC, Rockville, Md., U.S.A.) was derived from bone marrow stromal cells of a (C57BL/6J x C3H/HeJ) Fl mouse, and support human and murine myelopoiesis in long-term cultures (as per ATCC) and have the ability to differentiate into osteoblastic and adipocytic cells. Unless specified, these cells were cultured in RPMI 1640 containing 10% heat-inactivated FBS, and supplemented with 1 mM sodium pyruvate, 100 U/ml penicillin, and 100 U/ml streptomycin (all from Irvine Scientific).
(§2) Von Kossa and oil red O staining—Matrix mineralization in cell monolayers was detected by silver nitrate staining as previously described. Oil red O staining for detection of adipocytes was performed as previously described.
^45Ca incorporation assay—Matrix mineralization in cell monolayers was quantified using the ^45Ca incorporation assay as previously described.
After 14 days, mineralization was identified by a von Kossa staining, which appears black. FIG. 3C is a depiction of von Kossa staining of M2 cells exposed to various conditions.
After 14 days, matrix mineralization in cultures was quantified using a ^45Ca incorporation assay.
(§3) Next, a combination of 22R and 20S oxysterols (RS, 2.5 μM each) were added in the presence or absence of SC as indicated. After 3 days, ALP activity was measured as described earlier. […] (B) M2 cells were treated as described in (A) and after 10 days matrix mineralization in cultures was quantified by a ^45Ca incorporation assay as described earlier. […] (C) M2 cells were pretreated with 20 μM SC for 4 hours, followed by the addition of RS in the presence or absence of SC as described above. After 8 days, total RNA was isolated and analyzed for osteocalcin (Osc) and […] expression by Northern blotting as previously described. Data from densitometric analysis of the Northern blot is shown in (D) as the average of duplicate samples, normalized to 18S rRNA. (E) M2 cells at confluence were pretreated for 2 hours with control vehicle (C), or PLA2 inhibitors ACA (25 μM) and AACOCF3 (AAC, 20 μM), in osteogenic medium. Next, a combination of 22R and 20S oxysterols (RS, 2.5 μM) was added in the presence or absence of the inhibitors as indicated. After 3 days, ALP activity was measured as previously described. […] (F) M2 cells were treated as described in (E). After 10 days, matrix mineralization in cultures was quantified using a ^45Ca incorporation assay as previously described. Results from a representative of three experiments are shown, reported as the mean of quadruplicate determinations ±SD, normalized to protein concentration (p<0.01 for RS vs. RS+ACA and RS+AAC).
(A) M2 cells at confluence were pretreated for four hours with RPMI containing 1% FBS, followed by treatment with control vehicle or 5 μM 20S oxysterol for 1, 4, or 8 hours. Next total cell extracts were prepared and analyzed for levels of native or phosphorylated ERK (pERK) using specific antibodies as previously described. Data from a representative of four experiments are shown, each treatment shown in duplicate samples. (B) M2 cells at confluence were pretreated for 2 hours with control vehicle (C) or 20 μM PD98059 (PD) in osteogenic medium as previously described. Next, a combination of 22R and 20S oxysterols (RS, 5 μM each) were added to appropriate wells as indicated. After 10 days of incubation, matrix mineralization was quantified by the ^45Ca incorporation assay as previously described. […] (C) M2 cells at confluence were pretreated for 2 hours with 20 µM PD98059 (PD) in RPMI containing 5% FBS. Next, the cells were treated with control vehicle (C), 10 μM troglitazone (Tro), or 10 μM of 20S or 22S oxysterols, alone or in combination as indicated. After 10 days, adipocytes were visualized by oil Red O staining and quantified by light microscopy as previously described. […]

osteocalcin mRNA = test: Northern blotting for osteocalcin mRNA in M2-10B4 cells; conditions: for levels of osteocalcin mRNA relative to the control: 5 μM, eight days, M2-10B4
Protocol: RNA isolation and Northern blot analysis—Following treatment of cells under appropriate experimental conditions, total RNA was isolated using the RNA isolation kit from Stratagene (La Jolla, Calif., U.S.A.). Total RNA ([…]) was run on a 1% agarose/formaldehyde gel and transferred to Duralon-UV membranes (Strategene, CA, U.S.A.) and cross-linked with UV light. The membranes were hybridized overnight at 60 degree C. with ^32P-labeled mouse osteocalcin cDNA probe, mouse lipoprotein lipase (LPL), mouse adipocyte protein 2 (aP^2) PCR-generated probes, human 28S or 18S rRNA probes obtained from Geneka Biotechnology (Montreal, Quebec, Canada) and Maxim Biotech (San Francisco, Calif., U.S.A.), respectively. The PCR products were generated using primer sets synthesized by Invitrogen (Carlsbad, Calif., U.S.A.) with the following specifications: mouse aP2 gene (accession no. M13261); sense (75-95) 5′-[…]-3′, antisense (362-383) 5′-[…]-3′, generating a PCR product of 309 base pairs. Mouse LPL (accession no. XM—134193); sense (1038-1058) 5′-[…]-3′, antisense (1816-1836) 5′-[…]-3′, generating a PCR product of 799 base pairs. The PCR products were gel-purified and sequenced by the UCLA sequencing core, showing the highest similarity to their respective GenBank entries. Following hybridization, the blots were washed twice at room temperature with 2×SSC+0.1% SDS, and then twice at 60 degree C. with 0.5×SSC+0.1% SDS, and exposed to X-ray film. The extent of gene induction was determined by densitometry.
After 4 and 8 days, total RNA from duplicate samples was isolated and analyzed for osteocalcin (Osc) and 28S rRNA expression by Northern blotting as described. FIG. 3E is a radiogram of Northern blotting for osteocalcin mRNA in M2 cells exposed to a control or combination of oxysterols for 4 or 8 days. FIG. 3F is a bar graph depicting the relative demsometric units of osteocalcin mRNA in M2 cells exposed to a control or combination of oxysterols for 4 -or 8 days. Data from densitometric analysis of the Northern blot is shown in (F) as the average of duplicate samples, normalized to 28S rRNA.
as §3
ALP activity was measured after 2 days, as described. […] (B) M2 cells were treated as described in (A). After 10 days, matrix mineralization in cultures was quantified using a ^45Ca incorporation assay as described. […] (C) M2 cells were treated under similar conditions as those described above. […]

Runx2 = Runx2 DNA binding and protein expression in M2-10B4 cells; conditions: pretreatment; cyclopamine 1-10 μM; DKK-1 1 μg/ml (Runx2 protein expression only)
Protocol: Method: Marrow stromal cells (M2-10B4 (M2)) were treated with doses of 5-15 μM 20S-hydroxycholestrol.
Method: Marrow stromal cells (M2-10B4 (M2)) were treated with doses of 5-15 μM20S-hydroxycholestrol. Groups of cells were pre-treated with 22S or 22R.
Method: Marrow stromal cells (M2-10B4 (M2)) were pretreated with Wnt signaling inhibitor, DKK-1 (1 μg/ml), then treated with 20S-hydroxycholestrol and 22(8)-hydroxycholesterol.

[2] = test system: M2-10B4 marrow stromal cells; test: Alkaline phosphatase (ALP) activity assay on whole cell extracts of M2-10B4 marrow stromal cells; conditions: for Enzyme Activity (units/mg total cellular protein) ± SD, alkaline phosphatase: oxysterols 5 μM, 4 days, M2-10B4, untreated 6 ± 3
Protocol: as §1
Cells were always treated at 90% confluence. […]
as §3, with “Results from a representative of three experiments are shown, reported as the mean of quadruplicate determinations ±SD, normalized to protein concentration (p<0.01 for RS vs. RS+ACA and RS+AAC).” left out

marrow stromal cells = test: Osteogenic differentiation of marrow stromal cells (marker not specified: ALP activity, osteocalcin mRNA, mineral formation)
Protocol: The purpose of the study was to identify other osteogenic and anti-adipogenic oxysterols based on the chemical structure of previously identified oxysterols. The ability of such candidate oxysterol molecules to induce the formation of osteoblastic cells in cultures of marrow stromal cells (which are progenitors of osteoblastic cells that make bone) were tested. In order to assess osteogenic differentiation of cells, one or more markers of osteogenic differentiation were measured in untreated cells and cells treated with the test oxysterols. These markers included: alkaline phosphatase activity, osteocalcin mRNA expression and mineral formation in cultures of marrow stromal cells. Activation of either one or more than one marker by a single or combination oxysterols is indicative of their osteogenic property.

M2 cells = test: Troglitazone-induced adipogenesis in M2 cells (oil Red O staining, adipocyte count); conditions: Tro 10 μM, oxysterol 10 μM, 10 days, alone or in combination
Protocol: as §2
Test 1: M2 cells at 90% confluence were treated with vehicle (C), PPAR-γ activator, troglitazone 10 μM (Tro), alone or in combination with 10 μM oxysterols 20S-, 22R-, or 25S-hydroxycholesterol. After 8 days, adipocytes were identified by oil Red 0 staining and quantified by counting under a phase contrast microscope. FIG. 6A is a bar graph depicting the effect of oxysterols on reducing adipogenesis of MSC.
Test 2: (A) M2 cells at confluence were treated in RPMI containing 10% FBS with control vehicle or 10 μM troglitazone (Tro) in the absence or presence of 10 μM 20S or 22S-hydroxycholesterol. After 10 days, adipocytes were visualized by oil Red O staining and quantified by light microscopy, shown in (B). […] (C) M2 cells were treated at confluence with 10 μM Tro, alone or in combination with 10 μM 20S oxysterol. After 10 days, total RNA was isolated and analyzed for lipoprotein lipase (LPL), adipocyte P2 gene (aP2) or 18S rRNA expression by Northern blotting as described (Ref). Data from densitometric analysis of the Northern blot is shown in (D) as the average of duplicate samples, normalized to 18S rRNA.

CC1=C2C[C@H]3[C@@H](CC=C4C[C@@H](O)CC[C@@]43C)[C@@H]2CC[C@]12O[C@@H]1C[C@H](C)CN[C@H]1[C@H]2C [cyclopamine, reference compound]
effect on SS-induced mineralization [1]: inhibited | effect on SS-induced osteocalcin mRNA expression (osteocalcin mRNA; pretreatment, cyclopamine 1-10 μM, DKK-1 1 μg/ml): inhibited | effect on SS-induced Runx2 DNA binding and protein expression (Runx2): inhibited

CC(C)[C@@H](O)CC[C@@H](C)[C@H]1CC[C@H]2[C@@H]3CC=C4C[C@@H](O)CC[C@]4(C)[C@H]3CC[C@]12C [24-hydroxycholesterol, 24(S)-hydroxycholesterol]
Enzyme Activity (units/mg total cellular protein) ± SD, alkaline phosphatase [2]: 250 ± 20 units/mg total cellular protein | osteogenic property, alone or in combination with originally described oxysterols (marrow stromal cells): osteoinductive

CC(C)CCC[C@@H](C)[C@H]1CC[C@H]2[C@@H]3CC=C4[C@@H](O)[C@@H](O)CC[C@]4(C)[C@H]3CC[C@]12C [4beta-hydroxycholesterol]
levels of osteocalcin mRNA relative to the control (osteocalcin mRNA): moderate increase | osteogenic property, alone or in combination with originally described oxysterols (marrow stromal cells): osteoinductive

C[C@H](CC[C@@H]1OC1(C)C)[C@H]1CC[C@H]2[C@@H]3CC=C4C[C@@H](O)CC[C@]4(C)[C@H]3CC[C@]12C [24S,25-epoxycholesterol]
Enzyme Activity (units/mg total cellular protein) ± SD, alkaline phosphatase [2]: 1,588 ± 19^ units/mg total cellular protein | levels of osteocalcin mRNA relative to the control (osteocalcin mRNA): increased | osteogenic property, alone or in combination with originally described oxysterols (marrow stromal cells): osteoinductive

CC(C)CCC[C@@H](C)[C@H]1CC[C@H]2[C@@H]3C(=O)C=C4C[C@@H](O)CC[C@]4(C)[C@H]3CC[C@]12C [7-ketocholesterol, reference compound]
induction of alkaline phosphatase activity ([2]; 10 μM oxysterol, 3 days, osteogenic medium): did not induce | effect on troglitazone-induced adipogenesis (M2 cells): unable to inhibit adipogenesis
